According to patent publication US20210261636A1, “NEOANTIGENS EXPRESSED IN MULTIPLE MYELOMA AND THEIR USES” (Janssen Biotech, Inc., priority 2020, published 2021):

Tests used:
CD8+ T cells = assay: Exogenous autologous healthy donor restimulation assay, TNFα and IFNγ production by CD8+ T cells; assay type: cell-based, human; design: Frequency (TNFα+ IFNγ+ CD8 T cells): unit not given here; conditions: for Fold change (CD8+) vs. DMSO: maximum CD8+ T-cell response (TNFα and IFNγ); for Fold change (CD8+) vs. DMSO / Frequency (TNFα+ IFNγ+ CD8 T cells): donor independent, peptide pool 10 μg/mL, healthy donors; for Frequency (TNFα+ IFNγ+ CD8 T cells): maximum CD8+ T-cell response; for Immunogenic (yes/no): positive if CD8+ and/or CD4+ double positive TNFα/IFNγ frequency >=3-fold over DMSO and at least 0.01%
Method: (§1) Immunogenicity responses were measured by estimating TNFα IFNγ double positive cells in the CD4+ and/or CD8+ T-cell populations. A response is considered positive if TNFα IFNγ double positive fraction was greater than or equal to three-fold over unstimulated cells (DMSO negative control) with a minimum frequency >=0.01%. […]
(§2) Overlapping 15-mer peptides were designed to span each indicated neoantigen. Their ability to activate T cells was assessed using known methods, such as the assay defnied as exogenous autologous normal donor restimulation assay. The peptides were used as pools using TNFα and IFNγ production by CD8^+ and CD4^+ T cells as a readout. Maximum frequency of CD8^+TNFα^+IFNγ^+ and CD4^+TNFα^+IFNγ^+ T cells and maximum fold change over background for each pool of peptides were analyzed, which were calculated as the highest frequency of CD8^+ TNFα^+IFNγ^+ and CD4^+ TNFα^+IFNγ^+ T cells and resulting fold change across the normal donors evaluated for the peptide.
(§3) CD1c+Dendritic Cells (CD1c+DC) isolated from human healthy PBMCs were thawed using media (IMDM (Gibco) supplemented with glutamine, HEPES, 5% human serum (Sigma), and 1× Pen-Strep). DC cells were resuspended in media supplemented with IL-4 (Peprotech, 20 ng/mL) and GM-CSF (Gibco, 20 ng/mL), plated in 6 well microplates, and rested overnight at 37° C. and 5% CO2 incubator. The following day, DC cells were counted and plated in a 96 well round bottom microplate at a concentration of 30,000 viable cells per well. Lyophilized neoantigen peptide pools (15-mer peptides with 8-mer overlapping peptide sequences) were solubilized in 100% DMSO with a stock concentration of 20 mg/mL Neoantigen peptides pools were added to DCs for a final concentration of 10 μg/mL and rested for 2 hours at 37° C. and 5% CO2 incubator. CEF Peptide Pool “Plus” (Cellular Technologies, Ltd.) was utilized as a positive control (each viral peptide at a final concentration of 4 ug/ml) and DMSO at the same final concentration (0.05%) as the experimental peptides was utilized as a negative control. After 2 hours, DC cells were irradiated with 50 gray of ionizing radiation. Autologous CD3+ Pan-T cells isolated from human normal PBMCs were thawed using media. Following irradiation, autologous Pan-T cells were added to the irradiated DCs at 300,000 viable cells per well. Human IL-15 (Peprotech) was added to all wells at final concentration of 10 ng/ml. Plates were incubated at 37° C. and 5% CO2 incubator for a total of 12 days. Media was refreshed every 2-3 days with IL-15 (R&D System, 10 ng/mL final concentration) and IL-2 (R&D systems, 10 IU/mL final concentration).
(§4) On Day 11, cells were re-stimulated with identical experimental peptide pools or controls, at same concentration as peptide stimulation on Day 1. Protein Inhibitor Cocktail (eBioscience) was added to every well and plate was incubated overnight for 14-16 hours at 37° C. and 5% CO2 incubator. On Day 12, cells were stained for surface and intracellular flow cytometry analysis. The cells were washed with PBS and stained with Live/Dead Fixable Aqua Dead Cell stain (Thermo-Fisher). Following the live/dead stain, cells were blocked using Biotin-Free Fc Receptor Blocker (Accurate Chemical & Scientific Corp). Extracellular cellular flow panel (1 μL/antibody per well in 50 μL) consisted of CD3 PerCP-Cy5.5 (Biolegend), CD4 BV421 (Biolegend), and CD8 APC-Cy7 (Biolegend). After extracellular staining, cells were fixed and permeabilized using Foxp3/Transcription Factor Staining Buffer Set (eBioscience) and stained for intracellular proteins (1:50 dilution) using TNFα FITC (R&D Systems) and IFNγ BV785 (Biolegend). Cells were washed and resuspended in stain buffer, analyzed, and recorded in a BD Celesta flow cytometer.
(§5) Flow cytometry analysis was conducted on FlowJo v10.6 software. Cells were gated on live, singlet, CD3+, CD4+ and CD8+ T cells. The CD8+ and CD4+ T cells were analyzed for TNFα and IFNγ expression. […]

CD4+ T cells = assay: Exogenous autologous healthy donor restimulation assay, TNFα and IFNγ production by CD4+ T cells; assay type: cell-based, human; design: Frequency (TNFα+ IFNγ+ CD4 T cells): unit not given here; conditions: donor independent, peptide pool 10 μg/mL, healthy donors; for Fold change (CD4+) vs. DMSO: maximum CD4+ T-cell response (TNFα and IFNγ); for Frequency (TNFα+ IFNγ+ CD4 T cells): maximum CD4+ T-cell response
Method: as §1, §2, §3, §4, §5

Row | Substance | Fold change (CD8+) vs. DMSO (CD8+ T cells) | Frequency (TNFα+ IFNγ+ CD8 T cells) (CD8+ T cells) | Immunogenic (yes/no) (CD8+ T cells) | Fold change (CD4+) vs. DMSO (CD4+ T cells) | Frequency (TNFα+ IFNγ+ CD4 T cells) (CD4+ T cells)
1 | FSQNMNTKMIRGTERKQQYYGLQILE [AS134, alternative splicing, XPO1] | 4.51 | 0.091 | Yes | 1.429 | 0.02
2 | KKEDVNFQVKQLIH [AS96, alternative splicing, ANKRD28] | 7.34 | 0.15 | Yes | 5.47 | 0.027
3 | MEPTTKRGPGGTMVSAAAPS [FUS52, gene fusion SELPLG-> TMEM119] | 46.95 | 2.09 | Yes | 6.831 | 0.02
4 | DPTTKRSRLTPKLHFLVERNPRWSQEQRKYL [AS92, alternative splicing, MSI2] | 41.24 | 0.073 | Yes | 31.67 | 0.048
5 | ISKRLKSRRRSGWQLNRAGNRGLSPGLGLFPRGCCRWGGAYTRLPSANQT [FUS20, gene fusion PTGES2-> SLC25A25-AS1] | 511.064 | 4.85 | Yes | 11.664 | 0.068
6 | TAILFTRQQSKALPSLGITNRHGFWAGQGNTVMHGRDSDGKQVKGTVVILAQGAFHQ [AS109, alternative splicing, ADAMTS15] | 4.15 | 0.019 | Yes | 42.23 | 0.064
7 | MDLTAIYEDSAGPLSHA [FUS54, gene fusion ZFP36-> PLEKHG2] | 15.176 | 2.58 | Yes | 9.66 | 0.063
8 | NAVRSYYETNGGMSFLRITP [FUS19, gene fusion CADPS2-> RNF148] | 12.96 | 0.016 | Yes | 1.26 | 0.009
9 | NASLHEVKDFFVPFPLPLLHLTSLKRNKLFN [AS110, alternative splicing, CCDC88A] | 228.56 | 4.21 | Yes | 36.021 | 0.21
10 | FLQKHGNENTVLMLETLSEIRYGYVSCVCCPLLSPYGRCLN [AS26, alternative splicing, AGFG1] | 84.36 | 0.75 | Yes | 5.7 | 0.097
11 | LTALLLLASTPTP [AS18, alternative splicing, FCRLB] | 7.33 | 0.082 | Yes | 12.922 | 0.006
12 | YECTGCKTSFPHRSQS [FUS46, gene fusion GCNA-> LOC101059915] | 143.71 | 1.33 | Yes | 9.3 | 0.017
13 | CEIMPLQSYILL [AS37, alternative splicing, FAM13A] | 17.37 | 0.32 | Yes | 576.132 | 0.21
14 | SSVTTHSSGNLRESPIYH [FUS32, gene fusion GANC-> CAPN3] | 12.04 | 0.018 | Yes | 3.08 | 0.008
15 | FGTSHMMVRHF [AS33, alternative splicing, CFAP54] | 47.27 | 0.49 | Yes | 2.78 | 0.009
16 | PVILFKGKVRPIP [AS67, alternative splicing, MTMR14] | 28.23 | 0.52 | Yes | 8.57 | 0.071
17 | YGVYVINQKGHSGCIWSMDGEGRLETAWPVWKRGRCPGKRR [AS15, alternative splicing, B4GALT2] | 290 | 0.029 | Yes | 2469.136 | 0.9
18 | GKSTPPRKEIFDDASP [FUS11, gene fusion GAB1-> SMARCA5] | 7.36 | 0.013 | Yes | 11.4 | 0.008
19 | ARWFTREQGSEN [FUS12, gene fusion NUDT12-> LINC02115] | 24.68 | 0.58 | Yes | 2.77 | 0.027
20 | ARHLLTLGTCGSTWP [FUS26, gene fusion P2RY6-> ARHGEF17] | 7.07 | 0.1 | Yes | 2.46 | 0.026
21 | FU524 (SGLEAIQRGYETFYSE) | 259.11 | 0.48 | Yes | 3.13 | 0.014
22 | AAGVVTEIEAAVKA [FUS17, gene fusion HBS1L-> ALDH8A1] | 5.31 | 0.13 | Yes | 2.11 | 0.012
23 | ERSHSKKKDGLVRNDGPGFPPMFSTSENTNLD [AS54, alternative splicing, SETBP1] | 0.73 | 0.008 | Yes | 90.535 | 0.033
24 | GFFETEMAVPFFSRKIRKVRRAIMKWTFCCYFY [AS118, alternative splicing, IARS] | 106.428 | 1.01 | Yes | 7.692 | 0.15
25 | DMEVFLKEASTNQHNTLIHLTLTFST [AS73, alternative splicing, SMC5] | 3 | 0.02 | Yes | 72.58 | 0.11
